Experiments:
[1] = system: ChAT positive cells of the medial septal area; assay: Evaluation in human tau P301S transgenic mouse (ChAT positive cells, medial septal area); type: in vivo; conditions: human tau P301S transgenic mice, oral once a day for three months (four- to seven-month-old), Dose: 5 mg/kg, mean±SEM, # significant vs vehicle (83.0 ± 5.8)
Source text: Evaluation in Human Tau P301S Transgenic Mouse
(§1) (1) Compound Administration
In this study, the test compounds were orally administered to human tau P301S transgenic mice once a day for three months from four-month-old to seven-month-old. The vehicle used was 0.01 mol/L hydrochloric acid.
At the initial day of the administration (four-month-old) and at the next day of the final administration, mice of vehicle administration group and test compound administration group were anesthetized under pentobarbital (50 mg/kg, i.p.) and perfused with PBS. After the perfusion, the forebrain including the medial septal area was collected and fixed with 4% parafomaldehyde.
(3) Preparation of Brain Coronal Frozen Section
The collected forebrain including the medial septal area was immersed and shaken overnight in 4% paraformaldehyde. […]
The prepared brain coronal frozen sections were stained with DAB (DAB PEROXIDASE SUBSTRATE KIT (Vector, SK-4100)) using a ChAT antibody (Santa Cruz, SC-20672) as a primary antibody. The section image including the medial septal area as shown in “The mouse Brain in stereotaxic coordinates” (COMPACT THIRD EDITION, Keith B. J. Franklin & George Paxinos) was taken by an all-in-one fluorescence microscope (KEYENCE, […]) and […] positive cells around the major axis of the medial septal area were counted by BZ analysis software (KEYENCE). […] Data are expressed as the mean±SEM. […]

[2] = system: acetylcholine (ACh) in cerebrospinal fluid (CSF); assay: Measurement of acetylcholine (ACh) in rat cerebrospinal fluid (CSF); type: in vivo; conditions: Fischer 344 male rats, oral once a day at 10 mg/kg for three days, CSF 24 hours after administration, LC-MS
Procedure: Measurement of Acetylcholine (ACh) in Rat Cerebrospinal Fluid (CSF)
Thus, the changes in acetylcholine in CSF were measured in order to determine the changes in intracerebral acetylcholine by the test compounds.
(2) Compound Administration
In this study Fischer 344 male rats (Charles River Laboratories Japan, Inc.) with a body weight of about 150 to 250 g were used. The test compounds were orally administered to the rats once a day at 10 mg/kg for three days. The vehicle used was 0.01 mol/L hydrochloric acid.
At 24 hours after the administration of the vehicle and the test compounds, the CSF was collected from cisterna magna in a tube containing AchE inhibitors under pentobarbital anesthesia. The collected CSF was centrifuged at 3500×g at 4° C. for 10 minutes and the supernatant was collected. The collected supernatant was frozen with liquid nitrogen, and then stored at −80° C.
(4) Measurement of Ach by LC-MS
To 10 μL of the CSF was added 50 μL of acetylcholine-d9 chloride (ACh-d9) at a final concentration of 0.34 nmol/L as an internal standard. […] The supernatant was collected and subjected to LC/MS ([…]), and Ach was detected as precursor ion at m/z 146.050 and as product ion at m/z 87.071 and ACh-d9 as an internal standard was detected as precursor ion at m/z 155.088 and as product ion at m/z 87.000.

[3] = system: rat primary septal neuron culture; assay: Measurement of acetylcholine (ACh) release in the rat primary septal neuron culture system in the presence of NGF; type: cell-based; conditions: rat primary septal neurons, with NGF, one day after compound addition, HPLC
Source text: Measurement of Acetylcholine (ACh) Release in the Rat Primary Septal Neuron Culture System in the Presence of NGF
(1) Rat Primary Septal Neuron Culture
The septal area was isolated from Sprague-Dawley (SD) rats (Charles River Laboratories Japan, Inc.) at a fetal age of 18 days, and cultured. Specifically, fetuses were aseptically removed from pregnant rats under isoflurane anesthesia. The brain was extracted from each fetus, and immersed in ice-cooled L-15 medium (11415-064. Thermo Fisher Scientific), The septal area was dissected from the extracted brain under a stereoscopic microscope. The dissected septal area was subjected to enzyme treatment in an enzyme solution containing 0.25% trypsin (15050-065. Thermo Fisher Scientific) and 0.01% DNase (D5025-1.50KU, Sigma) at 37° C. for 30 minutes, thereby dispersing the cells. In this case, the enzyme reaction was terminated by adding inactivated horse serum (26050-088. Thermo Fisher Scientific). The enzyme-treated solution was centrifuged at 1000 rpm for 3 minutes, and the supernatant was removed. A medium in an amount of 10 mL was added to the obtained cell mass. […]
One day after compound addition, an amount of ACh release was measured by HPLC in the following manner. […]

[4] = system: Choline acetyltransferase (ChAT) mRNA; assay: Measurement of choline acetyltransferase (ChAT) mRNA expression levels in the rat septal area; type: in vivo; conditions: SD male rats, oral, 10 mg/kg, medial septum 24 hours after administration, qPCR
Procedure: Measurement of Choline Acetyltransferase (ChAT) mRNA Expression Levels in the Rat Septal Area
as §1
In this study, SD male rats (Charles River Laboratories Japan, Inc. with a body weight of about 250 to 350 g were used. The compound was dissolved in 0.01 mol/L hydrochloric acid, and orally administered.
At 24 hours after the administration of the compound, the whole brain tissue was collected under pentobarbital anesthesia. The medial septum was isolated from whole brain on ice and frozen with liquid nitrogen, and them stored at −80° C.
(3) Measurement of ChAT […] Expression Levels
For RNA purification, RNeasy Plus Mini Kit (#74136: QIAGEN) was used in this study. RNA purification was performed by the method described in the kit, After RNA purification, the total RNA concentration was measured by using QIAxpert Instrument (QIAGEN). cDNA was synthesized using SuperScript® VILO™ cDNA. Synthesis Kit (#11754: Thermo Fisher Scientific). The synthesis of cDNA was performed by the method described in the kit. […] Quantitative polymerase chain reaction (qPCR) was conducted using ABI PRISM® 7900HT (Thermo Fisher Scientific) by a fluorescence probe method. […]

[5] = system: ChAT positive cells of the medial septal area; assay: Fimbria-fornix lesioned rat model: ChAT positive cells of the medial septal area; type: in vivo; conditions: fimbria-fornix lesioned rats, oral once a day after the operation, % of sham-operated group, mean±SEM, # significant vs vehicle (38.4 ± 5.0)
Procedure: (§2) Neuroprotective and Restorative Effect on Cholinergic Neurons Using Fimbria-Formix Lesioned Rat Model
(§3) (1) Preparation of Fimbria-Fornix Lesioned Rat Model
(§4) In this studs Sprague-Dawley male rats (Charles River Laboratories Japan, Inc.) with a body weight of about 250 to 350 g were used. The rat was anesthetized under the combination of three drugs: midazolam (2 mg/kg s.c.), medetomidine hydrochloride (0.15 mg/kg s.c.) and butorphanol tartrate (2.5 mg/kg s.c.) and fixed with a brain stereotaxis apparatus (Narishige Co., Ltd.). The cranial was exposed and a hole with 5 mm width was drilled in the skull from the median line 2 mm posterior to Bregma. A razor with 4 mm width was pierced into the Bregma in 5.5 mm depth to cut fimbria-fornix. […]
(§5) The prepared brain coronal frozen sections were stained with DAB (DAB PEROXIDASE SUBSTRATE KIT (Vector, SK-4100)) using a ChAT antibody (Santa Cruz, SC-20672) or a VAChT antibody (Merck Millipore, ABN100) as a primary antibody. The section image including the medial septal area or hippocampus as shown in “The mouse Brain in stereotaxic coordinates” (COMPACT THIRD EDITION, Keith B. J. Franklin & George Paxinos) was taken by an all-in-one fluorescence microscope (KEYENCE, BZ-X710) and ChAT positive cells of the medial septal area or optical density (OD) in hippocampal VAChT were measured by BZ analysis software (KEYENCE). […] Data are expressed as the mean±SEM. […]

[6] = system: hippocampal vesicular acetylcholine transporter (VAChT); assay: Fimbria-fornix lesioned rat model: optical density in hippocampal VAChT; type: in vivo; conditions: fimbria-fornix lesioned rats, oral once a day after the operation, % of sham-operated group, mean±SEM, # significant vs vehicle (19.5 ± 6.4)
Procedure: as §2, §3, §4, §5

SMILES: CN1CCc2c(sc3nc4n(c(=O)c23)-c2sccc2C(=O)N(C)C4)C1 [Reference Example 1, 5,10-dimethyl-5,6,9,10,11,12-hexahydropyrido[4″,3″:4′,5′]thieno[2′,3′:4,5]pyrimido[1,2-a]thieno[3,2-f][1,4]diazepine-4,13-dione]
- Ratio (%) of number of ChAT positive cells compared to that in the initial administration [1]: 105.3 ± 4.3^# %
- ACh concentration in CSF, percentage (% of control) versus vehicle administration group [2]: 156.8%
- compound concentration showing a 20% increase from the ACh concentration in the buffer of the control group [3]: 0.1 µM
- percentage of ChAT mRNA expression levels increased from the vehicle administration group [4]: 56.4%
- Number of ChAT positive cells (%) in test compound administration group [5]: 74.1 ± 9.3^# %
- OD in hippocampal VAChT (%) in test compound administration group [6]: 66.1 ± 14.2^# %
